This note sets out measurements from ChEMBL document CHEMBL3784945, “Isoindolinone compounds active as Kv1.5 blockers identified using a multicomponent reaction approach” (Bioorg Med Chem Lett, 2016).

One series deals with Mus musculus. As to the kind of experiment: In vivo inhibition of Kv1.5 channel in BaLBc mouse assessed as unbound steady-state plasma concentration required to increase QT-interval by 30% at 20 umol/kg,iv for 15 mins. The series is classed as functional.
In series [1] the target is Potassium voltage-gated channel subfamily A member 5 (Homo sapiens, UniProt P22460). As to the kind of experiment: Inhibition of human Kv1.5 channel by QPatch-clamp method. On the technique in general: Patch clamp records ionic current or voltage across a cell membrane.
Chain of Potassium voltage-gated channel subfamily A member 5 (P22460 whole entry): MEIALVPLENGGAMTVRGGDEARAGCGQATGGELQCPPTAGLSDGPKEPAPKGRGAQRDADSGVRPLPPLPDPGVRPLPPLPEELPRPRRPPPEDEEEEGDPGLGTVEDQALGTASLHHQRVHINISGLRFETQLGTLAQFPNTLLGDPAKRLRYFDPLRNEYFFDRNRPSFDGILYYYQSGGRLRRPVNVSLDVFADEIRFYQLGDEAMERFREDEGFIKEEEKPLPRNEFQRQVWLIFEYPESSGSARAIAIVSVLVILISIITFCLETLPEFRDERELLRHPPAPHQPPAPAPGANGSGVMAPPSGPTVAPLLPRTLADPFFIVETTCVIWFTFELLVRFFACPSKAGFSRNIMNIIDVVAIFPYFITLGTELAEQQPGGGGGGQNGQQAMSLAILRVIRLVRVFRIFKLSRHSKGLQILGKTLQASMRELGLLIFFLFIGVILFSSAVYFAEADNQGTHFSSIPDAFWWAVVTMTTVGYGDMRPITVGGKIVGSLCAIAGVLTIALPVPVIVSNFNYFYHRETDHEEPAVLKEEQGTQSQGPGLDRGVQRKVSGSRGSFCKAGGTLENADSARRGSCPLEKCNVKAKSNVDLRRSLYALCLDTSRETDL
Series [2] concerns the target Voltage-gated inwardly rectifying potassium channel KCNH2 (Homo sapiens, UniProt Q12809). Kind of series: Inhibition of human ERG.
For another series, the system named is Liver microsome. As to the kind of experiment: (§1) Intrinsic clearance in human liver microsomes. Type of series: ADME. To be noted: microsomes.
Series [3] is described as follows: Lipophilicity, log D of the compound by HPLC analysis. Type of series: physicochemical.
Series [4] is described as follows: Solubility of the compound. The series is classed as physicochemical.
Series [5] in a line: Absolute bioavailability in dog. The series is classed as ADME, organism-based, Canis lupus familiaris. As to conditions: in vivo.
Series [6] is described as follows: Absolute bioavailability in rat. Type of series: ADME, organism-based. As to conditions: in vivo.
Series [7] is described as follows: Clearance in iv dosed dog. Type of series: ADME, organism-based, Canis lupus familiaris. To be noted: in vivo.
Series [8] in a line: Clearance in iv dosed rat. Type of series: ADME, organism-based. As to conditions: in vivo.
A further series has as its target Cytochrome P450 3A4 (Homo sapiens, UniProt P08684). As to the kind of experiment: Inhibition of CYP3A4 (unknown origin). Type of series: ADME.
Series [9] can be described thus: as §1. Type of series: ADME. As to conditions: liver microsomes, read-out: CLH. A general note: Liver microsomes are a subcellular fraction often used to study metabolism.
Series [10] in a line: Solubility of crystalline form of compound. Type of series: physicochemical.

SMILES strings stand for the structures. Converted amounts (≈) assume the structure as drawn. A value given as a limit tells only on which side of the number the result lay.

Chain of Voltage-gated inwardly rectifying potassium channel KCNH2 (Q12809 whole entry): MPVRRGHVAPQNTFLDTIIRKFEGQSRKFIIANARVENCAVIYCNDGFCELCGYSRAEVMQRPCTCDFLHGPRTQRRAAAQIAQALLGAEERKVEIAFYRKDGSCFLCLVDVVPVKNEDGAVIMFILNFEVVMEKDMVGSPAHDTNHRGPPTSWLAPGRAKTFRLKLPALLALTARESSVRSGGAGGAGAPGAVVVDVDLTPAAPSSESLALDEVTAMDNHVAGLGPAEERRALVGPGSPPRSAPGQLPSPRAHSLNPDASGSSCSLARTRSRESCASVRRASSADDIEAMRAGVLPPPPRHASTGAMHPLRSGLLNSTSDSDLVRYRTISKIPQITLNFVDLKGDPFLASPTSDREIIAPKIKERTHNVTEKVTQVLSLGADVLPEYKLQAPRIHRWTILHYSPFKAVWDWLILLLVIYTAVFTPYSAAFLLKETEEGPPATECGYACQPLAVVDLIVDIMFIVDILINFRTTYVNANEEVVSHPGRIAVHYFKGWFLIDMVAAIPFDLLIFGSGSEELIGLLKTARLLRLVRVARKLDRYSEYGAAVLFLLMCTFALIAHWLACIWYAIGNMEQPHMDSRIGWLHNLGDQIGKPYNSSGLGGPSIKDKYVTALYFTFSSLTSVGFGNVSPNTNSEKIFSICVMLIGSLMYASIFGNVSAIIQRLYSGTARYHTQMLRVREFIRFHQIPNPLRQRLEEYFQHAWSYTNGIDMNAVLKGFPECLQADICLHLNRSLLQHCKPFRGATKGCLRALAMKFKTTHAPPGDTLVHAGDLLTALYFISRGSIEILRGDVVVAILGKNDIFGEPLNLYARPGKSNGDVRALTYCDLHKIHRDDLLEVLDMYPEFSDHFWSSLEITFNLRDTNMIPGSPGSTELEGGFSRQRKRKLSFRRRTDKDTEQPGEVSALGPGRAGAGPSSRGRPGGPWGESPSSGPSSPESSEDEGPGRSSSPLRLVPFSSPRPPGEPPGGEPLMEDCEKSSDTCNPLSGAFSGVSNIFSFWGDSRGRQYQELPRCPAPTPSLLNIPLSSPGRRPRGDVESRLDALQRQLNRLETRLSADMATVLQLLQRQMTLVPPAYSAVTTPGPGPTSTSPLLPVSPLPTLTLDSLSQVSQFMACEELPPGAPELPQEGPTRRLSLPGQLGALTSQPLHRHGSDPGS
Chain of Cytochrome P450 3A4 (P08684 whole entry): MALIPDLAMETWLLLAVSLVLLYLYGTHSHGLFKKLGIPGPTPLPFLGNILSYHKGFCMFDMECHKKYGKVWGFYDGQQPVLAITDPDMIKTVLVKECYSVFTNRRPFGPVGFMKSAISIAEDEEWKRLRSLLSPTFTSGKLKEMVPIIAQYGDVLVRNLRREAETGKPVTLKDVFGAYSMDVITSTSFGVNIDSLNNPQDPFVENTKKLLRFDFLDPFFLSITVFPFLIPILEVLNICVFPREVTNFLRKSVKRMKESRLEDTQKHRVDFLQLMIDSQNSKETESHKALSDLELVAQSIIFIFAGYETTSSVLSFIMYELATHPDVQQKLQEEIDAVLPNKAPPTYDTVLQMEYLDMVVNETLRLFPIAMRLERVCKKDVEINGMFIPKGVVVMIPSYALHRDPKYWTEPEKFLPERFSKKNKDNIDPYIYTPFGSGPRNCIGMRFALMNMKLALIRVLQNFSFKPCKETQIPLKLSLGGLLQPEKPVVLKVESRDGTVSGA

With `CC(C)(C)NC(=O)C1c2ccccc2C(=O)N1Cc1cc(F)ccc1-c1ccc(F)cc1` (single isomer, unassigned; enantiomer 2), the Activity in the series on Mus musculus worked out at 0.28 µM. Further, the half-inhibitory concentration (IC50) (as a rule, the concentration needed to halve the response being measured) in [1] is 900 nM; in series [2] it was more than 33000 nM. The same molecule gave a CLH in the series on Liver microsome of 41 µL/min/mg.
For `CC(C)(C)NC(=O)C1c2ccccc2C(=O)N1Cc1ccccc1-c1ccc(F)c(F)c1` (stereo in doubt; 16E1), the Activity with Mus musculus turned out to be 0.066 µM. For the same molecule, the logD – broadly, the decadic logarithm of the distribution of all forms, ionised or not, between an organic phase and buffer at a given pH – in series [3] (read-out: logD) turned out to be 5. Besides, the IC50 in series [1] was 1500 nM; in series [2], more than 33000 nM. Moreover, the CLH in the series on Liver microsome is 38 µL/min/mg.
As for `CC(C)(CN1C(=O)c2ccccc2C1C(=O)NCCCF)c1ccc(Cl)cc1` (single isomer, unassigned; enantiomer 1), the concentration in solution in series [4] (solubility) was 83 µM (≈ 33.4 µg/mL). Further, the bioavailability – broadly, dose-corrected exposure relative to a reference, in per cent – in series [5] is 41%; in series [6], 58%. Further, the Activity with Mus musculus was found to be 0.4 µM. Moreover, the logD in series [3] (read-out: logD) came out at 4.2. The clearance (usually a measure of how efficiently the substance is removed, as volume per time) was found to be 18 mL/min/kg in [7] and 4.7 mL/min/kg in series [8]. Besides, the IC50 in [1] is 700 nM; in series [2], more than 33000 nM; on Cytochrome P450 3A4 it was more than 50000 nM. Also, in [9], the microsomal CLint worked out at 14 µL/min/mg.
For the molecule `CCCNC(=O)C1c2ccccc2C(=O)N1CC(C)c1ccc(Cl)cc1` (single isomer, unassigned; isomer 2), in the series with Mus musculus, the Activity worked out at 0.4 µM. The pH-dependent lipophilicity (logD) in series [3] is 3.9. Also, in series [1], half-maximal inhibition (IC50) was put at 700 nM. In the series with Liver microsome, this molecule gave a CLH of 183 µL/min/mg.
With `CCCNC(=O)C1c2ccccc2C(=O)N1CC(C)c1ccc(Cl)cc1` (single isomer, unassigned; isomer 1), the bioavailability in [5] came out at 63%; in series [6] it was 81%. In the series on Mus musculus, the Activity is 0.5 µM. Moreover, the logD in [3] (read-out: logD) is 4.2. In addition, the clearance in [7] stood at 6 mL/min/kg; in series [8], 7.8 mL/min/kg. The IC50 in [1] is 400 nM; at Cytochrome P450 3A4, more than 50000 nM. In addition, the solubility (usually the dissolved amount per volume that the medium holds) in [10] is 21 µM (≈ 7.79 µg/mL). Further, the microsomal CLint in series [9] came to 99 µL/min/mg.
Take `CC(C)(CN1C(=O)c2ccccc2C1C(=O)NCCCF)c1ccc(Cl)cc1` (stereo in doubt; 23): the Activity with Mus musculus was determined as 1.3 µM. Further, the logD in series [3] was 4. For the same molecule, inhibition in [1] was half-maximal at 500 nM (IC50). In the series with Liver microsome, this molecule showed a CLH of less than 12 µL/min/mg.
